Assay results taken from PubChem BioAssay AID248 (DTP/NCI, 2004).
Inconclusive results and toxic doses are left out.

System: L1210 leukemia ip in BDF1 mice, survival T/C
Experiment: NCI In Vivo Anticancer Drug Screen. Data for tumor model L1210 Leukemia (intraperitoneal) in B6D2F1 (BDF1) mice
Details: endpoint: mean survival time, higher = longer survival
Method in brief: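 Tumor was transplanted into mice, which were then dosed with test compound or vehicle alone. Survival was recorded for each group, and the treated figure was expressed relative to the control figure.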

[1] = dose: 100.0 mg/kg/injection, schedule: Q01DX009 (ip), vehicle: Klucel (hydroxypropylcellulose) (HPC)
[2] = dose: 100.0 mg/kg/injection, schedule: Q04DX003 (ip), vehicle: saline with Tween-80
[3] = dose: 200.0 mg/kg/injection, schedule: Q04DX003 (ip), vehicle: saline with Tween-80
[4] = dose: 400.0 mg/kg/injection, schedule: Q04DX003 (ip), vehicle: saline with Tween-80

O=C(O)C1(C(=O)O)C=CCCC1
T/C (dose: 100.0 mg/kg/injection, schedule: Q01DX009 (ip), vehicle: saline + alcohol): 89 % of control
T/C (dose: 100.0 mg/kg/injection, schedule: Q04DX003 (ip), vehicle: Klucel (hydroxypropylcellulose) (HPC)): 100 % of control
T/C (dose: 200.0 mg/kg/injection, schedule: Q01DX009 (ip), vehicle: saline + alcohol): 102 % of control
T/C (dose: 200.0 mg/kg/injection, schedule: Q04DX003 (ip), vehicle: Klucel (hydroxypropylcellulose) (HPC)): 97 % of control
T/C (dose: 400.0 mg/kg/injection, schedule: Q04DX003 (ip), vehicle: Klucel (hydroxypropylcellulose) (HPC)): 107 % of control

O=C(O)c1ccc(Nc2c3ccccc3nc3ccccc23)cc1
T/C (dose: 50.0 mg/kg/injection, schedule: Q01DX009 (ip), vehicle: Klucel (hydroxypropylcellulose) (HPC)): 177 % of control
T/C [1]: 243 % of control

CC1(C)NC(=O)N(Cc2ccccc2)C1=O
T/C [1]: 94 % of control
T/C [2]: 98 % of control
T/C (dose: 200.0 mg/kg/injection, schedule: Q01DX009 (ip), vehicle: Klucel (hydroxypropylcellulose) (HPC)): 97 % of control
T/C [3]: 110 % of control
T/C (dose: 400.0 mg/kg/injection, schedule: Q01DX009 (ip), vehicle: Klucel (hydroxypropylcellulose) (HPC)): 100 % of control
T/C [4]: 105 % of control

COc1cc(Nc2ncnc(N)c2[N+](=O)[O-])cc(OC)c1OC
T/C [3]: 88 % of control

O=C(Nc1ccccc1C1=NCCN1)c1ccc(C(=O)Nc2ccccc2C2=NCCN2)cc1
T/C (dose: 15.0 mg/kg/injection, schedule: Q01DX Z (ip), vehicle: methylcellulose (MC)): 88 % of control
T/C (dose: 30.0 mg/kg/injection, schedule: Q01DX Z (ip), vehicle: methylcellulose (MC)): 95 % of control
T/C (dose: 62.0 mg/kg/injection, schedule: Q01DX Z (ip), vehicle: carboxymethylcellulose (CMC)): 92 % of control
T/C (dose: 125.0 mg/kg/injection, schedule: Q01DX Z (ip), vehicle: carboxymethylcellulose (CMC)): 94 % of control
T/C (dose: 250.0 mg/kg/injection, schedule: Q01DX Z (ip), vehicle: carboxymethylcellulose (CMC)): 88 % of control

NC(CC(=O)O)c1nn[nH]n1 (stereo unspecified)
T/C (dose: 100.0 mg/kg/injection, schedule: Q01DX009 (ip), vehicle: saline with Tween-80): 102 % of control
T/C [2]: 105 % of control
T/C (dose: 200.0 mg/kg/injection, schedule: Q01DX009 (ip), vehicle: saline with Tween-80): 98 % of control
T/C [3]: 102 % of control
T/C [4]: 103 % of control

C=C(C)COc1c(C)cc(C)cc1C=Nc1ccccc1
T/C [2]: 109 % of control
T/C [3]: 106 % of control
T/C [4]: 105 % of control

COc1cc(OC)c(/C=C2\N=C(c3ccccc3)OC2=O)c(OC)c1
T/C (dose: 100.0 mg/kg/injection, schedule: Q04DX002 (ip), vehicle: other): 91 % of control
T/C (dose: 200.0 mg/kg/injection, schedule: Q04DX002 (ip), vehicle: other): 102 % of control
T/C (dose: 400.0 mg/kg/injection, schedule: Q04DX002 (ip), vehicle: other): 88 % of control

O=C(O)C(O)C(=O)O.[NH2-].[NH2-].[Pt+2]
T/C (dose: 1.0 mg/kg/injection, schedule: Q01DX001 (ip), vehicle: other): 94 % of control
T/C (dose: 2.0 mg/kg/injection, schedule: Q01DX001 (ip), vehicle: other): 95 % of control
T/C (dose: 2.0 mg/kg/injection, schedule: Q01DX009 (ip), vehicle: other): 101 % of control
T/C (dose: 4.0 mg/kg/injection, schedule: Q01DX001 (ip), vehicle: other): 98 % of control
T/C (dose: 4.0 mg/kg/injection, schedule: Q01DX009 (ip), vehicle: other): 101 % of control
T/C (dose: 8.0 mg/kg/injection, schedule: Q01DX001 (ip), vehicle: other): 98 % of control
T/C (dose: 8.0 mg/kg/injection, schedule: Q01DX009 (ip), vehicle: other): 101 % of control
T/C (dose: 16.0 mg/kg/injection, schedule: Q01DX001 (ip), vehicle: other): 101 % of control
T/C (dose: 25.0 mg/kg/injection, schedule: Q04DX003 (ip), vehicle: saline): 112 % of control
T/C (dose: 32.0 mg/kg/injection, schedule: Q01DX001 (ip), vehicle: other): 109 % of control
T/C (dose: 32.0 mg/kg/injection, schedule: Q01DX009 (ip), vehicle: other): 187 % of control
T/C (dose: 40.0 mg/kg/injection, schedule: Q01DX001 (ip), vehicle: other): 122 % of control
T/C (dose: 60.0 mg/kg/injection, schedule: Q01DX001 (ip), vehicle: other): 158 % of control
T/C (dose: 80.0 mg/kg/injection, schedule: Q01DX001 (ip), vehicle: other): 168 % of control
T/C (dose: 100.0 mg/kg/injection, schedule: Q01DX001 (ip), vehicle: other): 114 % of control
T/C (dose: 128.0 mg/kg/injection, schedule: Q01DX001 (ip), vehicle: other): 121 % of control
